In publication PMC11274883, “Anticancer Effect of Pt^[sequence], Pt^II5MESS, Pt^II56MESS and Their Platinum(IV)-Dihydroxy Derivatives against Triple-Negative Breast Cancer and Cisplatin-Resistant Colorectal Cancer” (Cancers, 2024):

Key:
Format in all cases: cell-based
MDA−MB−231 3D networks = assay: 3D bioprinted culture cytotoxicity (WST-1); conditions: 72 h, mean ± SEM
Description: (§1) To evaluate the cytotoxic effect of platinum(II) and (IV) complexes in 3D cell culture, MDA−MB−231 or HT29 cells were used to bioprint networks or spheroids with the non-contact drop-on-demand 3D RASTRUM bioprinter (Inventia Life Science, Alexandria, NSW, Australia). The 3D cultures use two constituents: bioink and activator. Cell pellets (2 × 10^6 cells) were resuspended in an activator reagent which forms an instant gel after its addition to the bioink by the bioprinter. The 3D large plug cell model with polyethylene glycol bioinks formulated to mimic the properties of in vivo tissue were chosen as follows. Matrix Px02.31 (activator F177 and bioink F242 with RGD: Fibronectin) was used for MDA−MB−231 3D embedded networks, Px02.00 (activator F177 and bioink F119 without RGD additives, Table S1) was used for MDA−MB−231 spheroids and matrix #Px02.09 (activator F177 and bioink F236 with adhesion peptides including, RGD: Fibronectin, and GFOGER: collagen type I to recapitulate rich in vivo tissue extracellular environments) was used for HT29 spheroids (Inventia Life Science) (Table S1). Each cell line was printed at 10,000 cells/well and loaded with the bioink fluids into the selected printer cartridge. After the automated priming of all fluids into the printer nozzles, each cell line was individually printed on tissue culture plates (Nunc^TM MicroWell^TM 96-Well, Nunclon Delta-Treated, Flat-Bottom Microplate, ThermoFisher #167008), with RASTRUM creating the 3D Large Plug across the 96-well plate. Following completion of the print run, 200 μL DMEM culture medium was added to each well using multichannel pipettes. The plate was then incubated for 7 days (humidified incubator with 5% CO2 at 37 °C) for compact and homogenous spheroid formation before the cytotoxicity assay. When the spheroids developed, post-7-day incubation, media was removed and replaced with 100 µL DMEM. […] Cytotoxicity was then assessed using the WST-1 assay as previously described in Section 2.3.

MDA−MB−231 spheroids = assay: 3D bioprinted spheroid cytotoxicity (WST-1); conditions: 72 h, mean ± SEM
Description: as §1

HT29 spheroids = assay: 3D bioprinted spheroid cytotoxicity (WST-1); conditions: 72 h, mean ± SEM
Description: as §1

HT29 cells = assay: Cellular uptake of Pt by ICP-MS; conditions: for Intracellular Concentration: HT29, 3 µM; for Intracellular/extracellular ratio: HT29, extracellular 3 µM
Protocol: (§2) A final concentration of 10^6 cells/well of MDA−MB−231 and HT29 cells were seeded in 6-well plates and incubated overnight to adhere. The cells were then treated with a final concentration of 3 µM of either Pt^II or Pt^IV complexes. After 0, 0.5, 1, 3, 6, 12, 24 or 30 h, the medium was removed, and the cells were washed three times with cold PBS and allowed to dry. Then, 400 µL of 69% HNO3 (Baseline grade nitric acid with PPB level reported impurities, Seastar Chemicals, Sidney, BC, Canada) was added to each well for 90 min to ensure complete digestion. […] Iridium 193 (^193Ir) was mixed online and introduced into the ICP-MS to check uptake efficiency and matrix interference. All ICP-MS parameters are described in Table S2 and elaborated in Method S3. The results represent an average of three different experiments run in triplicate (±SEM) and expressed as nmol/10^6 cells or µM/cell. Quantification of the cellular uptake of Pt was based on external standards (Certified Standard from Sigma-Aldrich, VIC, Australia) containing Internal standard Ir.
(§3) Method S3. Cellular Uptake of Platinum(II) and (IV) complexes
(§4) A final concentration of 10^6 cells/well of MDA−MB−231 and HT29 cells were seeded in 6-well plates and incubated overnight to adhere. The cells were then treated with a final concentration of 3 µM of either PtII or PtIV complexes. After 0, 0.5, 1, 3, 6, 12, 24 or 30 h, the medium was removed, and the cells were washed three times with cold PBS and allowed to dry. Then, 400 µL of 69% HNO3 (Baseline grade nitric acid with Instrument Quality Grade Nitric acid with ppb level reported impurities, Seastar Chemicals, Sidney, Canada) was added to each well for 90 mins to ensure complete digestion. The digests were then moved to trace -metal free 15 mL centrifuge tubes […]
(§5) concentration of 3.5-4%. Iridium 193 (193Ir), selected as internal standard, has similar first ionisation potential and mass to Platinum 195 (195Pt). A concentration of 50 ppb 193Ir in 2% HNO3 solution was chosen for the Perkin Elmer NexION® Inductively Coupled Plasma Mass Spectrometer (ICP-MS) as it produced a steady state signal intensity of 600-800K counts per second. Mixing and injection of sample and internal standard solution was carried out using an ESI 7 port Valve system (Elemental Scientific, USA). A high-quality Solvent Flex 2 stop pump with 0.38 mm ID tubing was used in conjunction with the ICP-MS’s Peristaltic pump set at 20 […]
(§6) standard both, at 0.25 mL/min) being 0.5 mL/min. The ICP-MS was tuned to high sensitivity settings to facilitate detection of low Pt concentrations in samples. This was done by adjusting the nebuliser gas flow between […] to achieve maximum Indium 115 intensity whilst maintaining an acceptable average oxide and doubly charged ratio of 1.64-2.24% and 1.17-1.69% respectively. The analysis method was set to peak hopping mode with a dwell time of […] and 45 sweeps through the mass spectrum per sample read. […]
(§7) peak integration time of 4500 milliseconds and enabled the collection of numerous data points for peak integration thereby increasing accuracy. The ICP-MS was tuned daily, and its performance optimised to a set of suppliers recommended settings. Analysis was only carried out when optimal oxide and doubly charged ratios with high ionic sensitivity was achieved. All ICP-MS parameters are described in Table S2. The results represent an average of three different experiments run in triplicates (± SEM) and expressed as nmol/106 cells or µM/cell. Quantification of the cellular uptake of Pt was based on external standards (Certified Standard from Sigma-Aldrich NSW, Australia) containing Internal standard Ir. […]

MDA−MB−231 cells = assay: Cellular uptake of Pt by ICP-MS; conditions: for Intracellular Concentration: MDA−MB−231, 3 µM; for Intracellular/extracellular ratio: MDA−MB−231, extracellular 3 µM
Protocol: as §2, §3, §4, §5, §6, §7

Structure (SMILES)	IC50 (MDA−MB−231 3D networks) [µM]	IC50 (MDA−MB−231 spheroids) [µM]	IC50 (HT29 spheroids) [µM]	Intracellular Concentration (HT29 cells; 0 h) [nmol/10^6 cells]	Intracellular Concentration (HT29 cells; 0.5 h) [nmol/10^6 cells]	Intracellular Concentration (HT29 cells; 1 h) [nmol/10^6 cells]	Intracellular Concentration (HT29 cells; 3 h) [nmol/10^6 cells]	Intracellular Concentration (HT29 cells; 6 h) [nmol/10^6 cells]	Intracellular Concentration (HT29 cells; 12 h) [nmol/10^6 cells]	Intracellular Concentration (HT29 cells; 24 h) [nmol/10^6 cells]	Intracellular Concentration (HT29 cells; 30 h) [nmol/10^6 cells]	Intracellular/extracellular ratio (HT29 cells; 0 h)	Intracellular/extracellular ratio (HT29 cells; 0.5 h)	Intracellular/extracellular ratio (HT29 cells; 1 h)	Intracellular/extracellular ratio (HT29 cells; 3 h)	Intracellular/extracellular ratio (HT29 cells; 6 h)	Intracellular/extracellular ratio (HT29 cells; 12 h)	Intracellular/extracellular ratio (HT29 cells; 24 h)	Intracellular Concentration (MDA−MB−231 cells; 0 h) [nmol/10^6 cells]	Intracellular Concentration (MDA−MB−231 cells; 0.5 h) [nmol/10^6 cells]	further results
N[C@H]1CCCC[C@@H]1N.O=[N+]([O-])[O-].O=[N+]([O-])[O-].[Pt+2].c1cnc2c(c1)ccc1cccnc12 [[Pt(1,10-phenanthroline)(1S,2S-diaminocyclohexane)](NO3)2]	2.84 ± 1.56	5.44 ± 1.35	3.93 ± 1.46	0.61	0.85	0.72	2.77	5.95	12.59	15.26	16.99	95.39	133.55	112.44	435.59	935.29	1979.17	2397.59	0.40	0.46	Intracellular Concentration (MDA−MB−231 cells; 1 h): 0.80 nmol/10^6 cells; Intracellular Concentration (MDA−MB−231 cells; 3 h): 0.81 nmol/10^6 cells; Intracellular Concentration (MDA−MB−231 cells; 6 h): 1.03 nmol/10^6 cells; Intracellular Concentration (MDA−MB−231 cells; 12 h): 2.59 nmol/10^6 cells; Intracellular Concentration (MDA−MB−231 cells; 24 h): 3.01 nmol/10^6 cells; Intracellular Concentration (MDA−MB−231 cells; 30 h): 4.79 nmol/10^6 cells; Intracellular/extracellular ratio (MDA−MB−231 cells; 0 h): 63.45; Intracellular/extracellular ratio (MDA−MB−231 cells; 0.5 h): 72.01; Intracellular/extracellular ratio (MDA−MB−231 cells; 1 h): 126.21; Intracellular/extracellular ratio (MDA−MB−231 cells; 3 h): 127.55; Intracellular/extracellular ratio (MDA−MB−231 cells; 6 h): 161.09; Intracellular/extracellular ratio (MDA−MB−231 cells; 12 h): 407.32; Intracellular/extracellular ratio (MDA−MB−231 cells; 24 h): 473.33; Intracellular/extracellular ratio (MDA−MB−231 cells; 30 h): 752.93
Cc1cc2cccnc2c2ncccc12.N[C@H]1CCCC[C@@H]1N.O=[N+]([O-])[O-].O=[N+]([O-])[O-].[OH][Pt+2][OH] [Pt^IV5MESS(OH)2, [Pt(5-methyl-1,10-phenanthroline)(1S,2S-diaminocyclohexane)(dihydroxy)](NO3)2]	3.82 ± 1.42	7.99 ± 1.3	8.46 ± 1.23	0.15	0.17	0.28	0.33	0.66	5.05	7.37	7.85	25.03	26.29	44.59	52.25	104.08	793.61	1158.37	0.16	0.22	Intracellular/extracellular ratio (HT29 cells; 30 h): 1234.08; Intracellular Concentration (MDA−MB−231 cells; 1 h): 0.17 nmol/10^6 cells; Intracellular Concentration (MDA−MB−231 cells; 3 h): 0.25 nmol/10^6 cells; Intracellular Concentration (MDA−MB−231 cells; 6 h): 0.29 nmol/10^6 cells; Intracellular Concentration (MDA−MB−231 cells; 12 h): 1.19 nmol/10^6 cells; Intracellular Concentration (MDA−MB−231 cells; 24 h): 1.31 nmol/10^6 cells; Intracellular Concentration (MDA−MB−231 cells; 30 h): 2.37 nmol/10^6 cells; Intracellular/extracellular ratio (MDA−MB−231 cells; 0 h): 26.14; Intracellular/extracellular ratio (MDA−MB−231 cells; 0.5 h): 35.23; Intracellular/extracellular ratio (MDA−MB−231 cells; 1 h): 27.69; Intracellular/extracellular ratio (MDA−MB−231 cells; 3 h): 40.45; Intracellular/extracellular ratio (MDA−MB−231 cells; 6 h): 46.47; Intracellular/extracellular ratio (MDA−MB−231 cells; 12 h): 186.97; Intracellular/extracellular ratio (MDA−MB−231 cells; 24 h): 205.97; Intracellular/extracellular ratio (MDA−MB−231 cells; 30 h): 371.97
